Measured values: US5750530A, “Pharmaceutical diketopiperazine compounds” (Xenova Limited, priority 1994, dated 1998)
Structures can show the parent of a compound that is named as a salt.

Biological target: PAI-1 (Homo sapiens, UniProt P05121)
Assay: biochemical
Type: biochemical
Details: for IC50: PAI chromogenic substrate assay
Procedure, shortened: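 Compound preincubated with PAI-1 before addition to a tPA system; residual tPA converts plasminogen to plasmin, which cleaves chromogenic substrate S2251. Released p-nitroaniline read at 405 nm; values given as % inhibition at set concentrations or IC50.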

Sequence of PAI-1 (P05121 24-402): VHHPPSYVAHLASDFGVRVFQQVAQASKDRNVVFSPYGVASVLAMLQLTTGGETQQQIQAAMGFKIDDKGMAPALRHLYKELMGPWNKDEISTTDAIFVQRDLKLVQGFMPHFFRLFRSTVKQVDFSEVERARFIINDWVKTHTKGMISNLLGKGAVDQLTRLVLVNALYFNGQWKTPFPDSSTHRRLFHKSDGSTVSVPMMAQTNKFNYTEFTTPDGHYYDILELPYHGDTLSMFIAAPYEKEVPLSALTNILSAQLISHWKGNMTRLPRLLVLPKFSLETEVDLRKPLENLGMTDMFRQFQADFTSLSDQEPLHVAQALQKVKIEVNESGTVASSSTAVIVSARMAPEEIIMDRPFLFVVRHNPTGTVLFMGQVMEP

Row | SMILES | % Inhibition (5 μm) | % Inhibition (20 μm) | IC50
1 | COc1ccc2ccccc2c1/C=c1\[nH]c(=O)/c(=C/c2ccc(SCCN(C)C)s2)[nH]c1=O [Compound 5499.HCl, (3Z,6Z)-3-(5-(2-Dimethylaminoethylthio)-2-thienyl)methylene-6-(2-methoxy-1-naphthyl)methylene-2,5-piperazinedione] | 0% | 54% | 18.4 µM
2 | CN(C)CCSc1ccc(/C=c2\[nH]c(=O)/c(=C/CC(C)(C)C)[nH]c2=O)s1 [Compound 5502, (3Z,6Z)-3-(5-(2-Dimethylaminoethylthio)-2-thienyl)methylene-6-(3,3-dimethyl-1-butylidene)-2,5-piperazinedione] | 0% | 12% | > 20 µM
3 | CN(C)CCSc1ccc(/C=c2\[nH]c(=O)/c(=C/CC(C)(C)C)[nH]c2=O)s1 [Compound 5502.HCl, (3Z,6Z)-3-(5-(2-Dimethylaminoethylthio)-2-thienyl)methylene-6-(3,3-dimethyl-1-butylidene)-2,5-piperazinedione] | 0% | 32% | 
